The values below come from patent US5582832A, “Compositions for topical application to skin” (priority 1995, dated 1996).

The subject of one experiment is vitamin D metabolism. The settings on record: cited from earlier work.
The test system of experiment [1] is keratinocytes. The conditions noted are these: exogenous or endogenous; cited from earlier work.
Experiment [2] deals with 25D degradation (vitamin D metabolism in keratinocytes). Nature of the experiment: Vitamin D metabolism in keratinocytes: 25D degradation. The class given is cell-based, human. The settings on record: for blocking of 25D degradation (in words) / 25D degradation (%): 1 uM; for blocking of 25D degradation (in words): 20 hours (Table 2); for % degradation (25D): Table 1, 10 uM compound; for 25D degradation (%): Table 2, 20 hour incubation, mean of duplicate (range); for 25D (% degradation): Table 3, 10 uM. The procedure: (§1) 1. Normal human keratinocytes isolated from neonatal foreskins by trypsin treatment were grown in DME medium/10% fetal calf serum in the presence of irradiated 3T3 mouse fibroblasts for establishing dividing keratinocyte colonies. Keratinocytes were grown under the above condition until their third passage.
(§2) 80% confluent keratinocytes were incubated with 0.05 uCi of ^3 H-25D or ^3 H-1,25D for two hours or 20 hours in the presence of 1-100 uM of the different compounds. Reaction was stopped by addition of methanol and the cells and medium were extracted using chloroform:methanol. The chloroform layer was separated, dried and spotted on TLC plates. […] The amount of radioactivity in each lane was quantitated using the BioScan radioactive plate reader. The amount of radioactivity remaining in the peak area of 25D and 1,25D were calculated as % of control. The % remaining was subtracted from 100 to get the % degradation of the metabolites.
(§3) The data are expressed as mean of % degradation of 25D or 1,25D. The range is also given in parenthesis.

In experiment [3] the test system is 1,25D degradation (vitamin D metabolism in keratinocytes). Nature of the experiment: Vitamin D metabolism in keratinocytes: 1,25D degradation. Format: cell-based, human. The settings on record: for blocking of 1,25D degradation (in words) / 1,25D degradation (%): 1 uM; for blocking of 1,25D degradation (in words): 20 hours (Table 2); for % degradation (1,25D): Table 1, 10 uM compound; for 1,25D degradation (%): Table 2, 20 hour incubation, mean of duplicate (range); for 1,25D (% degradation): Table 3, 10 uM. As to the method:
as §1, §2, §3

Experiment [4] relates to keratinocytes. In words: Rate of DNA synthesis (3H-thymidine incorporation) in keratinocytes. The class given is cell-based, human. The settings on record: for DNA synthesis, % of control (100 nM 1,25D + 5 uM ceramide Formula A) / DNA synthesis, % of control (azole, only 100 nM 1,25D): Table 4; for DNA synthesis, % of control (100 nM 1,25D + 5 uM ceramide Formula A): 10 uM azole (or no azole) + 100 nM 1,25D + 5 uM ceramide Formula A, * = synergistic effect; for DNA synthesis, % of control (100 nM 1,25D + 5 uM ceramide Formula A) / DNA synthesis, % of control (azole, only 100 nM 1,25D) / DNA synthesis: mean + SD; for DNA synthesis, % of control (azole, only 100 nM 1,25D): 10 uM azole, no ceramide; for DNA synthesis, % of control (azole, only 100 nM 1,25D) / DNA synthesis / DNA synthesis (% control): 100 nM 1,25D. The procedure:
as §1
2. For the experiments, third passage keratinocytes were plated into a serum-free keratinocyte growth medium (KSFM; obtained from Life Technologies, Grand Island, N.Y.) containing 0.09 mM calcium. 20,000 to 30,000 cells were plated into each well of 24 well cell culture plates and grown for 5 days, until the cells reach about 80% confluence.
3. Medium was changed to fresh medium and the various test materials were added to the medium from an ethanolic stock solution (10:00 AM). The final ethanol concentration in the cultures was kept below 0.2%. Control cultures received no tested material but were dosed with 0.2% ethanol. Each compound or combination was tested in three separate wells. By 4:00 PM, 1 uCi of ^3 H-thymidine (Amersham Corp., Sp activity 40 Ci/mmol) was added to the 1 ml medium in each well. The cells were incubated overnight and […] (10:00 AM next day) the amount of ^3 -thymidine associated with the cellular DNA of keratinocytes was assessed as described below.
4. The medium was aspirated, and the wells washed with 1 ml phosphate-buffered saline. The DNA and proteins of the cells in the plate were then precipitated by adding 1 ml of ice-cold 10% trichloroacetic acid (TCA). The plates were left on ice for 30 minutes to complete the precipitation process. TCA was then aspirated and each well was then washed four times with 5% TCA. The plates were then dried on a filter pad and the cells in the wells were dissolved in 0.5 ml of 0.1N sodium hydroxide. The sodium hydroxide was then neutralized using 0.1N hydrochloric acid and the solution (1 ml total volume) was then transferred to a scintillation vial. 50 μl samples from each vial were used for protein assay using BCA protein assay reagent obtained from Pierce Chemical Company. 8 ml of a scintillation fluid (Ecolume) was added to the rest of the solution in the vial, and the vials were counted in a scintillation counter to determine the amount of radioactivity in each vial. The DNA synthesis rate was then calculated as cpm ^3 H thymidine incorporated into total cellular DNA/microgram of cell protein for each individual well. Mean and standard deviation for each group was also calculated.
Rationale for using 1,25D is that in in vivo situation, these azoles will inhibit the endogenous degradation of the 1,25D which is obtained from the circulation. Azoles will act in keratinocytes to increase the endogenous levels of 1,25D within cells. Keratinocytes (70% confluent) were incubated with 10 uM of the different azoles in the presence of 100 nM 1,25D. One of the groups was treated with 5 uM of ceramide of Formula A in the medium. After four hours, all the wells were treated with 1 uCi ^3 H-thymidine and the rate of DNA synthesis was estimated as described in the methods.
Keratinocytes were incubated with 1 or 10 uM of Econazole in the presence of 1 uM of the different ceramide analogues and 100 nM 1,25D in the medium. Thymidine incorporation was measured with an overnight incubation as described in Example 2.

Experiment [5] concerns histamine induced erythema. The settings on record: cited from earlier work.
[6] abbreviates: Tables 4A-4F, azole 10 uM, ceramide Formula A 5 uM.
Setting [7] is: Tables 4A-4F, azole 10 uM, 1440 min.
Setting [8] is: Tables 5A-5I, Econazole 10 uM, ceramide analogue 1 uM.

Take `CC(=O)N1CCN(c2ccc(OCC3COC(Cn4ccnc4)(c4ccc(Cl)cc4Cl)O3)cc2)CC1` (stereo not drawn) [Ketoconazole, ketoconazole]: the “inhibition of vitamin D metabolism (in words)” value with vitamin D metabolism was “established inhibitor of vitamin D metabolism”.

On to `C=C1/C(=C\C=C2/CCC[C@]3(C)[C@@H]([C@H](C)CCCC(C)(C)O)CC[C@@H]23)C[C@@H](O)C[C@@H]1O` [1,25-(OH)2 D3], for which the “inhibition of DNA synthesis and induction of differentiation (in words)” value in the experiment with keratinocytes [1] was “inhibit DNA synthesis (i.e., inhibit growth) and induce differentiation of keratinocytes”.

`Clc1ccc(COC(Cn2ccnc2)c2ccc(Cl)cc2Cl)cc1` (stereo not drawn) [Econazole]: in experiment [2], the “blocking of 25D degradation (in words)” value was “very effective”, the “% degradation (25D)” value is 5% and the “25D degradation (%)” value is given as 54.1 (44.3-63.9) %. In experiment [2] (2 hours), the “blocking of 25D metabolism (in words)” value was “ineffective” and the “25D (% degradation)” value is on record as 92%. In experiment [2] (20 hours), the “blocking of 25D metabolism (in words)” value was “very effective” and the “25D (% degradation)” value stood at 5%. Besides, the “inhibition of 25D metabolism (in words)” value in experiment [2] (results of Table 1) is recorded as “most potent”. Also, in experiment [3], the “blocking of 1,25D degradation (in words)” value is “very effective”, the “% degradation (1,25D)” value came to 2% and the “1,25D degradation (%)” value is 46.8 (45.1-48.6) %. Also, in experiment [3] (2 hours), the “blocking of 1,25D metabolism (in words)” value is listed as “ineffective” and the “1,25D (% degradation)” value turned out to be 78%. Also, in experiment [3] (20 hours), the “blocking of 1,25D metabolism (in words)” value is on record as “very effective” and the “1,25D (% degradation)” value turned out to be 2%. Also, the “inhibition of 1,25D metabolism (in words)” value in experiment [3] (results of Table 1) is “most potent”. Moreover, in the experiment with keratinocytes [4] (1440 min), the “DNA synthesis, % of control (100 nM 1,25D + 5 uM ceramide Formula A)” value was 22.5 + 2.4 % of control and the “DNA synthesis, % of control (azole, only 100 nM 1,25D)” value is 64.5 + 3.9 % of control. Also, the DNA synthesis in the experiment on keratinocytes [4] (setting [6]) is on record as 94719 + 5732 cpm 3H thymidine incorporated. In addition, in the experiment with keratinocytes [4] (setting [7]), the “DNA synthesis (% control)” value was found to be 64.57 % control. For the same molecule, in the experiment on keratinocytes [4] (setting [8]), the “DNA synthesis (% control)” value came to 50.5 % control and the DNA synthesis is on record as 15147 + 4337 cpm 3H thymidine incorporated.

As to `Clc1ccc(COC(Cn2ccnc2)c2ccc(Cl)cc2Cl)c(Cl)c1` (stereo not drawn) [Miconazole], in experiment [2], the “blocking of 25D degradation (in words)” value is “effective with 25D”, the “% degradation (25D)” value came to 54% and the “25D degradation (%)” value is on record as 38.7 (35.4-42.0) %. Besides, in experiment [3], the “blocking of 1,25D degradation (in words)” value is “did not block 1,25D degradation”, the “% degradation (1,25D)” value is listed as 70% and the “1,25D degradation (%)” value is reported as 75.8 (69.9-81.8) %. In the experiment with keratinocytes [4] (1440 min), the “DNA synthesis, % of control (100 nM 1,25D + 5 uM ceramide Formula A)” value is reported as 17.5 + 3.3 % of control and the “DNA synthesis, % of control (azole, only 100 nM 1,25D)” value is listed as 42.8 + 1.8 % of control. The DNA synthesis with keratinocytes [4] (setting [6]) is 62806 + 2649 cpm 3H thymidine incorporated. Besides, in the experiment on keratinocytes [4] (setting [7]), the “DNA synthesis (% control)” value came out at 42.8 % control.

For `c1ccc(-c2ccc(C(c3ccccc3)n3ccnc3)cc2)cc1` (stereo not drawn) [Bifonazole], in experiment [2], the “blocking of 25D degradation (in words)” value was “very effective”, the “% degradation (25D)” value is listed as 15% and the “25D degradation (%)” value is reported as 41.2 (35.4-47.1) %. In addition, in experiment [2] (2 hours), the “blocking of 25D metabolism (in words)” value is on record as “ineffective” and the “25D (% degradation)” value is listed as 89%. In experiment [2] (20 hours), the “blocking of 25D metabolism (in words)” value is listed as “very effective” and the “25D (% degradation)” value came out at 15%. Besides, in experiment [3], the “blocking of 1,25D degradation (in words)” value is recorded as “very effective”, the “% degradation (1,25D)” value was found to be 56% and the “1,25D degradation (%)” value was 37.0 (25.4-48.6) %. Also, in experiment [3] (2 hours), the “blocking of 1,25D metabolism (in words)” value was “ineffective” and the “1,25D (% degradation)” value was 83%. Moreover, in experiment [3] (20 hours), the “blocking of 1,25D metabolism (in words)” value was “very effective” and the “1,25D (% degradation)” value is 56%. Also, in the experiment on keratinocytes [4] (1440 min), the “DNA synthesis, % of control (100 nM 1,25D + 5 uM ceramide Formula A)” value is recorded as 44.4 + 7.3 % of control and the “DNA synthesis, % of control (azole, only 100 nM 1,25D)” value is recorded as 75.8 + 4.3 % of control. The “DNA synthesis (% control)” value in the experiment on keratinocytes [4] (Tables 4A-4F, azole 10 uM, ceramide Formula A 5 uM, 1440 min) turned out to be 75.8 % control. In addition, the DNA synthesis in the experiment with keratinocytes [4] (setting [6]) is recorded as 111256 + 6355 cpm 3H thymidine incorporated. The “direct anti-inflammatory activity (in words)” value in experiment [5] was “direct anti-inflammatory activity”.

Take `C=C1CC[C@H](O)C/C1=C/C=C1\CCC[C@]2(C)[C@@H]([C@H](C)CCCC(C)(C)O)CC[C@@H]12` [25-hydroxyvitamin D (25D), 25-hydroxyvitamin D]: the “inhibition of DNA synthesis and induction of differentiation (in words)” value in the experiment with keratinocytes [1] is “inhibit DNA synthesis (i.e., inhibit growth) and induce differentiation of keratinocytes”.
